{
  "source": "patent US5354861A",
  "about": "“2-(benzyl)-3-arylbenzofurans as antitumour and hypocholesterolemic agents” (National University of Singapore, priority 1992, dated 1994)",
  "key": {"[1]": {"test_system": "antiestrogen-binding sites (AEBS)", "assay": "Competitive displacement of [3H]tamoxifen from AEBS in EL4 whole cells", "conditions": "5 nM [3H]tamoxifen, competitor 50 nM-1000 nM, tamoxifen = 100, mean ± SEM of two experiments", "protocol": "^a Determined by competitive ligand binding assays using EL4 whole\ncells as the source of AEBS. Cells were incubated with 5 nM [^3\nunlabelled competing ligand (50 nM-1000 nM). The binding reaction was\nwhere RBA50 is the concentration required to reduce bound [^3\ncompetiting ligand). The data are the mean ± SEM of two experiments."}, "human breast carcinoma": {"test_system": "human breast carcinoma", "conditions": "clinical trials; prior art; cited from earlier work"}, "estrogen receptor (ER) [2]": {"test_system": "estrogen receptor (ER)", "conditions": "prior art, cited from earlier work"}, "estrogen receptor (ER) [3]": {"biological_target": "T1, estrogen receptor (ER) (Homo sapiens, UniProt P03372)", "T1 construct": "ER present in an established human breast carcinoma-derivedcell line, MCF7; endogenous in cells; host or cells: MCF7 whole cells", "T1 sequence (P03372 1-595)": "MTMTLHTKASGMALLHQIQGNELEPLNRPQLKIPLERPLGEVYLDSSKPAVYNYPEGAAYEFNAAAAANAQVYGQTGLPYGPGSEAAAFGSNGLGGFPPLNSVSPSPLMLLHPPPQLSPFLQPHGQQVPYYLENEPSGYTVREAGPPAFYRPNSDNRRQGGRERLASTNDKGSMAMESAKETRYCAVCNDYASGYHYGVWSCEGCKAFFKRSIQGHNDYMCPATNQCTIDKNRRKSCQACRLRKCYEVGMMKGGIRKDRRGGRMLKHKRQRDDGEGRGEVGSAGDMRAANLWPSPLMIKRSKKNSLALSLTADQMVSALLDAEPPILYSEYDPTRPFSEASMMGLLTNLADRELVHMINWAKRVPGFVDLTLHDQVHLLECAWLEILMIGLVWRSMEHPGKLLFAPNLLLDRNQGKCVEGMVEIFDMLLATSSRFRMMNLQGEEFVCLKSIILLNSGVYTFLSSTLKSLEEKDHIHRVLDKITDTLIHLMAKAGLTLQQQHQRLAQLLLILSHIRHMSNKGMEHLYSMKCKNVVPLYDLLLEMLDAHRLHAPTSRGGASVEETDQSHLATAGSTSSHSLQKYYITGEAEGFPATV", "assay": "Competitive displacement of [3H]estradiol from ER in MCF7 whole cells", "format": "binding", "conditions": "5 nM [3H]estradiol, hundredfold excess of test compound, mean ± SEM of two experiments, read-out: Bound [3H]estradiol (% of control)", "protocol": "^a Determined by competitive ligand binding assays using MCF7 whole\ncells as the receptor source. Cells were incubated with 5 nM [^3\nH]estradiol in the absence or presence of a hundredfold excess of DES or\neach test compound. The binding reaction was performed and bound [^3\nH]estradiol quantitated as described in the experimental section.\n^b Bound [^3 H]estradiol in the absence of unlabelled competing\nligand was set at 100%. The data are the mean ± SEM of two experiments"}, "MCF7 cells": {"test_system": "MCF7 cells", "assay": "[3H]Thymidine incorporation (antiproliferative activity) by MCF7 cells", "format": "cell-based", "conditions": "Homo sapiens, 48 hours, mean ± SEM of two experiments, read-out: IC50 MCF7 (inhibition of [3H]thymidine incorporation)", "protocol": "(§1) After 48 hours, each well was pulsed with [^3 H]thymidine (New England Nuclear)(74 KBq/well, 0.02 ml/well) for 60 minutes. Macromolecular incorporation of [^3 H]thymidine was quantitated by harvesting cells on a Brandel harvester fitted with scintillant-coated glass microfibre filters (Ready Filters, Beckman).\n(§2) [^3 H]Thymidine incorporation by MCF7 and RTx6 cells was determined by the same technique with the following modifications: (i) cells were plated at 4,500 cells/well (0.18 ml/well); (ii) compounds and [^3 H]thymidine (37 KBq/well, 0.02 ml/well) were added 24 hours after plating; (iii) cells were trypsinized (0.05 ml of 0.05%/0.53 mM EDTA/well) prior to harvesting."}, "EL4 cells [4]": {"test_system": "EL4 cells", "assay": "[3H]Thymidine incorporation (antiproliferative activity) by EL4 cells", "format": "cell-based", "conditions": "Mus musculus, 48 hours, mean ± SEM of two experiments, read-out: IC50 EL4 (inhibition of [3H]thymidine incorporation)", "protocol": "as §1, §2"}, "[5]": {"assay": "Cell viability of EL4 cells by trypan blue exclusion", "format": "cell-based", "conditions": "mouse, el4 cells, trypan blue exclusion", "protocol": "(§3) Cell counts were performed manually using a Neubauer hemocytometer. Cell viability was assessed by trypan blue exclusion. The table below (Table HI) is a summary\n(§4) De novo synthesis of cholesterol by EL4 cells from [^3 H]acetic acid, sodium salt (Amersham) (103 GBq/mmol) was quantitated using [4-^14 C]cholesterol (Amersham) (2.04 GBq/mmol) as internal standard by the method of Ho et al., J.Exp.Med.(1977) 145:1531-1549). Each determination was performed in triplicate, each consisting of 0.8 ml of a cell suspension (2×10^7 EL4 cells/ml) incubated with [^3 H]acetate (0.25 mM) and the test compound (0.1 ml, 10^-6 M-10^-4 M) for 5 or 48 hours at 37° C.\n(§5) ^e Cell viability was estimated by trypan blue exclusion.\n(§6) ^d Cell viability was estimated by trypan blue exclusion."}, "EL4 cells [6]": {"test_system": "EL4 cells", "assay": "Cell viability of EL4 cells by trypan blue exclusion", "format": "cell-based", "conditions": "compound 2, 5 hours", "protocol": "as §3, §4, §5, §6"}, "[7]": {"test_system": "cholesterol biosynthesis by EL4 cells", "assay": "De novo cholesterol biosynthesis from [3H]acetate by EL4 cells", "format": "cell-based", "conditions": "for % total radioactivity incorporated as cholesterol, experiment I / % total radioactivity incorporated as cholesterol, experiment II: single determinations of triplicate; for % total radioactivity incorporated as cholesterol, Mean: two experiments in triplicate", "protocol": "as §4\n^a EL4 cells (20 × 10^6 cells/ml in well) were incubated\nwith 0.25 mM [^3 H]acetate in the absence or presence of 2 (10^-6\n^b EL4 cells (20 × 10^6 cells/ml in well) were incubated\nwith 0.25 mM [^3 H] acetate in the absence or presence of 2 (10^-\nwith 0.25 mM [^3 H]acetate in the absence or presence of 4 (10^-4"}, "[8]": {"conditions": "prior art; cited from earlier work"}, "[9]": {"conditions": "compound 2, concentration 10^-M [sic], 48 hours"}},
  "note": "Several values for one entry are separate records, joined by “and”; a condition that tells them apart may be missing. Equal values may be shown once.",
  "data": [
    {"smiles": "CC/C(=C(\\c1ccccc1)c1ccc(OCCN(C)C)cc1)c1ccccc1", "note": "[1a (Tamoxifen), 1-[4-(2-dimethylaminoethoxy)phenyl]-1,2-diphenylbut1-(Z)-ene]", "values": [
      {"measurement": "RBA", "setting": "[1]", "value": 100},
      {"measurement": "adverse side effects (in words)", "setting": "human breast carcinoma", "value": "low incidence of adverse side effects"},
      {"measurement": "clinical efficacy as antiestrogen (in words)", "setting": "human breast carcinoma", "value": "established its efficacy"},
      {"measurement": "antagonist/agonist character (in words)", "setting": "estrogen receptor (ER) [2]", "value": "partial antagonists/agonists"}
    ]},
    {"smiles": "COc1ccc2c(-c3ccc(OCCN(C)C)cc3)c(Cc3ccc(Cl)cc3)oc2c1", "note": "[Compound 1]", "values": [
      {"measurement": "remaining activity at 0.5 µM", "setting": "estrogen receptor (ER) [3]", "value": "98 ± 1", "unit": "%"},
      {"measurement": "RBA", "setting": "[1]", "value": "391 ± 195"},
      {"measurement": "IC50", "setting": "MCF7 cells", "value": "5.025 ± 0.025", "unit": "µM"},
      {"measurement": "IC50", "setting": "EL4 cells [4]", "value": "0.95 ± 0.05", "unit": "µM"}
    ]},
    {"smiles": "COc1ccc2c(-c3ccc(OCCN4CCCC4)cc3)c(Cc3ccc(Cl)cc3)oc2c1", "note": "[Compound 2, 2-(p-Chlorobenzyl)-3-[p-(2-pyrrolidinoethoxy)phenyl]-6-methoxybenzo[b]furan]", "values": [
      {"measurement": "RBA", "setting": "[1]", "value": "268 ± 92"},
      {"measurement": "IC50", "setting": "MCF7 cells", "value": "2.3 ± 0.1", "unit": "µM"},
      {"measurement": "viability at 5 h, 1 µM", "setting": "[5]; compound 2, 10^-6 M, 5 hours, control 96", "value": 91, "unit": "%"},
      {"measurement": "viability at 48 h", "setting": "[5]; compound 2, concentration 10^-M [sic], 48 hours, control 92", "value": 87, "unit": "%"},
      {"measurement": "cell viability (in words)", "setting": "EL4 cells [6]", "value": "not associated with loss of cell viability"},
      {"measurement": "IC50", "setting": "EL4 cells [4]", "value": "0.475 ± 0.225", "unit": "µM"},
      {"measurement": "inhibition of cholesterol biosynthesis (in words)", "setting": "[7]; as early as 5 hours after treatment", "value": "significant inhibition of cholesterol biosynthesis"},
      {"measurement": "% inhibition of cholesterol synthesis", "setting": "[7]; compound 2, 10^-6 M, 5 hours, p < 0.01, Student's t test", "value": 48, "unit": "%"},
      {"measurement": "% total radioactivity incorporated as cholesterol, experiment I", "setting": "[7]; compound 2, 10^-6 M, 5 hours", "value": "0.13% and 0.10% and 0.12%"},
      {"measurement": "% total radioactivity incorporated as cholesterol, experiment II", "setting": "[7]; compound 2, 10^-6 M, 5 hours", "value": "0.11% and 0.12% and 0.14%"},
      {"measurement": "% total radioactivity incorporated as cholesterol, Mean", "setting": "[7]; compound 2, 10^-6 M, 5 hours, control 0.23 ± 0.02", "value": "0.12 ± 0.01", "unit": "%"},
      {"measurement": "% inhibition of cholesterol synthesis", "setting": "[7]; compound 2, concentration 10^-M [sic], 48 hours, p < 0.01, Student's t test", "value": 47, "unit": "%"},
      {"measurement": "% total radioactivity incorporated as cholesterol, experiment I", "setting": "[7]; [9]", "value": "0.16% and 0.15% and 0.24%"},
      {"measurement": "% total radioactivity incorporated as cholesterol, experiment II", "setting": "[7]; [9]", "value": "0.14% and 0.17%"},
      {"measurement": "% total radioactivity incorporated as cholesterol, Mean", "setting": "[7]; compound 2, concentration 10^-M [sic], 48 hours, control 0.32 ± 0.02", "value": "0.17 ± 0.02", "unit": "%"}
    ]},
    {"smiles": "COc1ccc2c(-c3ccc(OCCN4CCCCC4)cc3)c(Cc3ccc(Cl)cc3)oc2c1", "note": "[Compound 3, 2-(p-Chlorobenzyl)-3-[p-(2-piperidinoethoxy)phenyl]-6-methoxybenzo[b]furan]", "values": [
      {"measurement": "remaining activity at 0.5 µM", "setting": "estrogen receptor (ER) [3]", "value": "93.5 ± 0.5", "unit": "%"},
      {"measurement": "RBA", "setting": "[1]", "value": "605 ± 371"},
      {"measurement": "IC50", "setting": "MCF7 cells", "value": "2.05 ± 0.05", "unit": "µM"},
      {"measurement": "IC50", "setting": "EL4 cells [4]", "value": "0.3 ± 0.15", "unit": "µM"}
    ]},
    {"smiles": "COc1ccc2c(-c3ccc(OCCN4CCOCC4)cc3)c(Cc3ccc(Cl)cc3)oc2c1", "note": "[Compound 4]", "values": [
      {"measurement": "remaining activity at 0.5 µM", "setting": "estrogen receptor (ER) [3]", "value": "104 ± 2.5", "unit": "%"},
      {"measurement": "RBA", "setting": "[1]", "value": "1828 ± 446"},
      {"measurement": "IC50", "setting": "MCF7 cells", "value": "6.5 ± 0.5", "unit": "µM"},
      {"measurement": "viability at 5 h, 100 µM", "setting": "[5]; compound 4, 10^-4 M, 5 hours, control 96", "value": 79, "unit": "%"},
      {"measurement": "IC50", "setting": "EL4 cells [4]", "value": "0.335 ± 0.145", "unit": "µM"},
      {"measurement": "% inhibition of cholesterol synthesis", "setting": "[7]; compound 4, 10^-4 M, 5 hours, p < 0.05, Student's t test", "value": 56, "unit": "%"},
      {"measurement": "% total radioactivity incorporated as cholesterol, experiment I", "setting": "[7]; compound 4, 10^-4 M, 5 hours", "value": "0.19% and 0.09% and 0.05%"},
      {"measurement": "% total radioactivity incorporated as cholesterol, experiment II", "setting": "[7]; compound 4, 10^-4 M, 5 hours", "value": "0.11% and 0.12%"},
      {"measurement": "% total radioactivity incorporated as cholesterol, Mean", "setting": "[7]; compound 4, 10^-4 M, 5 hours, control 0.25 ± 0.02", "value": "0.11 ± 0.03", "unit": "%"},
      {"measurement": "incorporation of [3H]acetate into cholesterol (in words)", "setting": "[7]; compound 4 at higher concentration (Table V)", "value": "decreased incorporation of [^3 H]acetate into cholesterol"}
    ]},
    {"smiles": "O=C(c1ccc(OCCN2CCCC2)cc1)c1c(-c2ccc(O)cc2)sc2cc(O)ccc12", "note": "[LY117018]", "values": [
      {"measurement": "duration of action in vivo (in words)", "setting": "[8]", "value": "shorter duration of action in vivo"},
      {"measurement": "antagonist/agonist character (in words)", "setting": "estrogen receptor (ER) [2]", "value": "partial antagonists/agonists (like tamoxifen)"}
    ]},
    {"smiles": "COc1ccc(C2=C(C(=O)c3ccc(OCCN4CCCC4)cc3)c3ccccc3CC2)cc1", "note": "[Trioxifene]", "values": [
      {"measurement": "clinical efficacy as antiestrogen (in words)", "setting": "human breast carcinoma", "value": "an effective antiestrogen in clinical trials"},
      {"measurement": "estrogenic activity (in words)", "setting": "estrogen receptor (ER) [2]; compared with tamoxifen", "value": "possesses greater estrogenic activity than tamoxifen"}
    ]}
  ]
}
